Results as given in patent US5656603A (Loyola University of Chicago, priority 1995, dated 1997).

Target: T1, prolidase (Sus scrofa, UniProt A0A5G2QQV1)
T1 construct: Purified porcine kidney prolidase and purified porcine kidney aminopeptidase M was obtained from Sigma; purchased Sigma (St. Louis, Mo.); host or cells: porcine kidney
T1 sequence (A0A5G2QQV1 1-463): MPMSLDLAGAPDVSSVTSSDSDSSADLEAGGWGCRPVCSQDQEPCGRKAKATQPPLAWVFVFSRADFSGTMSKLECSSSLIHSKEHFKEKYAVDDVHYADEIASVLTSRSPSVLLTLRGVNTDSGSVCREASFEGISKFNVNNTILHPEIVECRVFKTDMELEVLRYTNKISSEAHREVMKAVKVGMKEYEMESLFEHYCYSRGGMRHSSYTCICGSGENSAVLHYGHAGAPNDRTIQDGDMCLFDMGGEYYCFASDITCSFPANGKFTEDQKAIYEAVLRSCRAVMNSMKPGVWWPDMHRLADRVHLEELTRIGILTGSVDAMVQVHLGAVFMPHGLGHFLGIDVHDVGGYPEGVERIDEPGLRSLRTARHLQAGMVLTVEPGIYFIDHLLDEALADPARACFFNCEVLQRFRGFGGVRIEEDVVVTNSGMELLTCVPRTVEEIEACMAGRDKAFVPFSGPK
Assay: Specificity of apstatin: prolidase
Assay type: biochemical
Settings: purified, porcine kidney; Arg-Pro, pH 8.0, HPLC-2
Excerpt: Enzymes--Membrane-bound aminopeptidase P was purified to homogeneity from bovine lung (14) and from rat lung. Partially purified membrane-bound aminopeptidase P from human lung was obtained by treatment of lung microsomes with phosphatidylinositol-specific phospholipase C (B. thuringiensis) (ICN, Costa Mesa, Calif.) followed by centrifugation as described previously (14). Membrane dipeptidase was purified from rat lung microsomes (manuscript in preparation). Recombinant E. coli aminopeptidase P (22) and purified lamb kidney prolyl oligopeptidase (23) were generally supplied by Dr. Tadashi Yoshimoto (Nagasaki University). Purified porcine kidney prolidase and purified porcine kidney aminopeptidase M was obtained from Sigma (St. Louis, Mo.).
Specificity of Apstatin--Apstatin was assayed for its ability to inhibit several other peptidases. […] Unless otherwise indicated, the source of each enzyme activity was a detergent extract of bovine lung prepared as described in (12-13). Activities were determined by a modification of the fluorescent assay described above (indicated by "FLUO") or by HPLC separation and quantitation of reaction products using the method described in (12) (method "HPLC-1") or the method described below (method "HPLC-2"). […]

C[C@H](NC(=O)[C@@H]1CCCN1C(=O)[C@@H]1CCCN1C(=O)[C@@H](O)[C@H](N)Cc1ccccc1)C(N)=O [apstatin, N-[(2S, 3R)-3-amino-2-hydroxy-4-phenylbutanoyl]-L-prolyl-L-prolyl-Lalaninamide]
IC50: 4.9 µM
